Experimental data taken from patent EP0431480A2, “Substituted 10-ring-lactones, process for their preparation and their use” (HOECHST AKTIENGESELLSCHAFT, priority 1989, dated 1991).

Tests used:
HEP-G2-Zellen = assay: Inhibition of cholesterol biosynthesis: incorporation of 14C sodium acetate into cholesterol in HEP-G2 cell monolayers; format: cell-based; conditions: Homo sapiens; for inhibition at 0.1 µM: HepG2, Konzentration im Medium 10^-7 M; for inhibition at 0.0025 µM: HepG2, Konzentration im Medium 2,5·10^-9 M
Text: Hemmung der Cholesterin Biosynthese
Die Hemmung der Cholesterin Biosynthese durch die erfindungsgemäßen Verbindungen wurde in Zellkulturversuchen mit HEP-G2-Zellen über die Wirkung auf den Einbau von ^14C-Natriumacetat in Cholesterin nachgewiesen. Dazu wurden Monolayers von HEP-G2-Zellen in lipoproteinfreiem Nährmedium mit entsprechenden Konzentrationen der erfindungsgemäßen Verbindungen eine Stunde vorinkubiert; nach Zugabe des^14C markierten Präkursors ^14C-Natriumacetat wurde die Inkubation für 3 Stunden fortgesetzt. Danach wurde ein Teil der Zellen alkalisch verseift, nach vorheriger Zugabe eines internen Standards von ^3H-Cholesterin. Die Lipide der verseiften Zellen wurden mit Chloroform-Methanol extrahiert. Dieses Lipidgemisch wurde nach Zusatz von Trägercholesterin präparativ dünnschichtchromatographisch getrennt, die Cholesterinbande nach dem Sichtbarmachen isoliert und die aus dem 14C-Präkursor gebildete Menge '^4C-Cholesterin szintigraphisch bestimmt. In einem aliquoten Teil der Zellen wurde Zellprotein bestimmt, so daß die in der Zeiteinheit pro mg Zellprotein aus 14C-Präkursor gebildete Menge an ^14C-Cholesterin berechnet werden konnte. Zum Vergleich für die Hemmwirkung einer zugesetzten erfindungsgemäßen Verbindung diente die Kontrolle, so daß direkt die Hemmung der Cholesterinbiosynthese bei einer bestimmten molaren Konzentration der erfindungsgemäßen Verbindung im Medium angegeben werden konnte. Zur Beurteilung der Wirkungstärke der erfindungsgemäßen Verbindungen wurde die Hemmwirkung von Lovastatin im selben Versuchsansatz bestimmt. In aliquoten Anteilen der Zellkultur wurde die Intaktheit der Zellkultur und die fehlende Zellschädigung durch Einwirkung der erfindungsgemäßen Verbindung morphologisch (Lichtmikroskop) beurteilt und biochemisch durch Bestimmung des Release von Laktat-Dehydrogenase ins Inkubationsmedium gemessen.
Das Ergebnis dieser Untersuchung ist in Tabelle 2 wiedergegeben. Die Wirkung der erfindungsgemäßen Substanzen als Cholesterin-Biosynthese-Hemmer ist deutlich zu erkennen. In den geprüften Konzentrationen hatten die erfindungsgemäßen Verbindungen im Zeitraum von 4 Stunden keine cytotoxische Wirkung.

Serumlipoproteine = assay: Chronic test in male rats: 7 daily oral doses, serum lipoproteins separated by preparative ultracentrifugation; format: in vivo, Ratte; conditions: for Vasoprotektiv Index HDL-C LDL-C: HDL-Cholesterin : LDL-Cholesterin, Kontrolle 3,24
Text: Die Hemmung der hepatischen Cholesterinbiosynthese hat Auswirkungen auf die Verminderung von Serum-Lipiden, wie im chronischen Versuch an der männlichen Ratte nachgewiesen werden konnte (Tabelle 2).
Gruppen männlicher Ratten des Stammes HOE: WISKf (SPF 71) mit einem Ausgangsgewicht von etwa 240 g erhielten täglich morgens die erfindungsgemäßen Verbindungen in Polyethylenglykol 400 per
Schlundsonde, wobei die jeweilige Kontrollgruppe nur das Vehikel erhielt. 24 Stunden nach der letzten (7.) Applikation und nach 24 Stunden Futterentzug wurde Blut entnommen und im gewonnen Serum die Lipoproteine aus dem Pool einer Rattengruppe mittels der präparativen Ultrazentrifugentechnik getrennt. Hierbei wurden folgende Dichtegrenzen für die Trennung von VLDL, LDL und HDL benutzt:
• VLDL = very low density lipoprotein • LDL = low density lipoprotein • HDL = high density lipoprotein
Für die Bestimmung des Cholesterins und der Triglyceride wurden vollenzymatische Methoden nach Boehringer/Mannheim benutzt, für die Bestimmung des Proteins die Methode von Lowry et al. J. Biol. Chem., 193, 265 (1951) herangezogen. […] Daraus resultiert eine Erhöhung des vasoprotektiven Index (HDL-Cholesterin : LDL-Cholesterin) mit einer ca. 8-fach höheren Potency als Clofibrat.

[1] = read-out: % Cholesterin-Biosynthese-Hemmung

CCCCCC(=O)OC1CC(=O)CC(=O)OC(C)CC2OC12 (centres unmarked) [II.13]
inhibition at 0.01 µM (HEP-G2-Zellen; HepG2, Konzentration im Medium 10^-8 M, read-out: % Cholesterin-Biosynthese-Hemmung): 44%
inhibition at 0.001 µM (HEP-G2-Zellen; HepG2, Konzentration im Medium 10^-9 M, read-out: % Cholesterin-Biosynthese-Hemmung): 37%

CC(=O)OC1CC(=O)CC(=O)OC(C)CC2OC12 (centres unmarked) [II.1]
inhibition at 0.1 µM (HEP-G2-Zellen; [1]): 13%

CC(C)CC(=O)OC1CC(=O)CC(=O)OC(C)CC2OC12 (centres unmarked) [II.10]
inhibition at 0.0025 µM (HEP-G2-Zellen; [1]): 48%
inhibition at 0.1 µM (HEP-G2-Zellen; [1]): 59%

CCCCC(=O)OC1CC(=O)CC(=O)OC(C)CC2OC12 (centres unmarked) [II.11, 6-Butylcarbonyloxy-2,4-dioxo-10-methyl-1-oxa-7-cyclodecenoxid]
inhibition at 0.0025 µM (HEP-G2-Zellen; [1]): 57%
inhibition at 0.1 µM (HEP-G2-Zellen; [1]): 73%

CC1CC2OC2C(OC(=O)Nc2ccccc2)CC(=O)CC(=O)O1 (centres unmarked) [II.4, 2,4-Dioxo-10-methyl-1-oxa-6-(phenyl-amino-carbonyl-oxy)-7-cyclodecenoxid]
inhibition at 0.1 µM (HEP-G2-Zellen; [1]): 68%

CCC(=O)OC1CC(=O)CC(=O)OC(C)CC2OC12 (centres unmarked) [II.8]
inhibition at 0.0025 µM (HEP-G2-Zellen; [1]): 51%
inhibition at 0.1 µM (HEP-G2-Zellen; [1]): 69%

CC1CC2OC2C(OC(=O)c2ccccc2)CC(=O)CC(=O)O1 (centres unmarked) [II.3]
Beeinflussung der Serumlipoproteine im Vergleich zur Kontrollgruppe in % HDL-C (Serumlipoproteine; 30 mg/kg/Tag oral, 7 days): +22%
Beeinflussung der Serumlipoproteine im Vergleich zur Kontrollgruppe in % LDL-C (Serumlipoproteine; 30 mg/kg/Tag oral, 7 days): -19%
Beeinflussung der Serumlipoproteine im Vergleich zur Kontrollgruppe in % LDL-Protein (Serumlipoproteine; 30 mg/kg/Tag oral, 7 days): -14%
Beeinflussung der Serumlipoproteine im Vergleich zur Kontrollgruppe in % VLDL-C (Serumlipoproteine; 30 mg/kg/Tag oral, 7 days): -21%
Vasoprotektiv Index HDL-C LDL-C (Serumlipoproteine; 30 mg/kg/Tag oral, 7 days): 4,88
Wirkung auf LDL, VLDL und HDL-Fraktion (in words) (Serumlipoproteine; 7-tägige orale Applikation, lower dose than Clofibrat): deutlichen Verminderung von LDL und VLDL, bei Erhöhung der HDL-Fraktion
Verträglichkeit (Anwendung der Substanz von den Ratten vertragen) (Serumlipoproteine; 7 days oral): anstandslos vertragen
Hepatomegalie (Serumlipoproteine; 7 days oral, in contrast to Clofibrat): keine Hepatomegalie
Erhöhung des vasoprotektiven Index (HDL-Cholesterin : LDL-Cholesterin): höhere Potency als Clofibrat (Serumlipoproteine; relative to Clofibrat, 7 days oral): ca. 8 -fach

CC[C@H](C)C(=O)O[C@H]1C[C@@H](C)C=C2C=C[C@H](C)[C@H](CC[C@@H]3C[C@@H](O)CC(=O)O3)[C@H]21 [Lovastatin, reference compound]
IC50 (HEP-G2-Zellen; HepG2, Lovastatin in the same experimental run as the substance of the row, read-out: Vergleichsreihe für Lovastatin im selben Versuchsansatz IC50): 10 nM

CCOC(=O)C(C)(C)Oc1ccc(Cl)cc1 [Clofibrat, reference compound]
Beeinflussung der Serumlipoproteine im Vergleich zur Kontrollgruppe in % HDL-C (Serumlipoproteine; 100 mg/kg/Tag oral, 7 days): -36%
Beeinflussung der Serumlipoproteine im Vergleich zur Kontrollgruppe in % HDL-Protein (Serumlipoproteine; 100 mg/kg/Tag oral, 7 days): -14%
Beeinflussung der Serumlipoproteine im Vergleich zur Kontrollgruppe in % LDL-C (Serumlipoproteine; 100 mg/kg/Tag oral, 7 days): -47%
Beeinflussung der Serumlipoproteine im Vergleich zur Kontrollgruppe in % LDL-Protein (Serumlipoproteine; 100 mg/kg/Tag oral, 7 days): -13%
Beeinflussung der Serumlipoproteine im Vergleich zur Kontrollgruppe in % VLDL-C (Serumlipoproteine; 100 mg/kg/Tag oral, 7 days): -56%
Vasoprotektiv Index HDL-C LDL-C (Serumlipoproteine; 100 mg/kg/Tag oral, 7 days): 3,87
